# Patent US20220340597A1, “HEXAHYDRO-1H-PYRAZINO[1,2-A]PYRAZINE COMPOUNDS FOR THE TREATMENT OF AUTOIMMUNE DISEASE” (Hoffmann-La Roche Inc., priority 2019, published 2022)
# pIC50: −log10 of the molar value.
# How the values were obtained:
# human TLR8 = target: T1, human TLR8 (Homo sapiens, UniProt Q9NR97); assay: HEK293-Blue-hTLR-8 cells assay
# T1 sequence (Q9NR97 27-1041): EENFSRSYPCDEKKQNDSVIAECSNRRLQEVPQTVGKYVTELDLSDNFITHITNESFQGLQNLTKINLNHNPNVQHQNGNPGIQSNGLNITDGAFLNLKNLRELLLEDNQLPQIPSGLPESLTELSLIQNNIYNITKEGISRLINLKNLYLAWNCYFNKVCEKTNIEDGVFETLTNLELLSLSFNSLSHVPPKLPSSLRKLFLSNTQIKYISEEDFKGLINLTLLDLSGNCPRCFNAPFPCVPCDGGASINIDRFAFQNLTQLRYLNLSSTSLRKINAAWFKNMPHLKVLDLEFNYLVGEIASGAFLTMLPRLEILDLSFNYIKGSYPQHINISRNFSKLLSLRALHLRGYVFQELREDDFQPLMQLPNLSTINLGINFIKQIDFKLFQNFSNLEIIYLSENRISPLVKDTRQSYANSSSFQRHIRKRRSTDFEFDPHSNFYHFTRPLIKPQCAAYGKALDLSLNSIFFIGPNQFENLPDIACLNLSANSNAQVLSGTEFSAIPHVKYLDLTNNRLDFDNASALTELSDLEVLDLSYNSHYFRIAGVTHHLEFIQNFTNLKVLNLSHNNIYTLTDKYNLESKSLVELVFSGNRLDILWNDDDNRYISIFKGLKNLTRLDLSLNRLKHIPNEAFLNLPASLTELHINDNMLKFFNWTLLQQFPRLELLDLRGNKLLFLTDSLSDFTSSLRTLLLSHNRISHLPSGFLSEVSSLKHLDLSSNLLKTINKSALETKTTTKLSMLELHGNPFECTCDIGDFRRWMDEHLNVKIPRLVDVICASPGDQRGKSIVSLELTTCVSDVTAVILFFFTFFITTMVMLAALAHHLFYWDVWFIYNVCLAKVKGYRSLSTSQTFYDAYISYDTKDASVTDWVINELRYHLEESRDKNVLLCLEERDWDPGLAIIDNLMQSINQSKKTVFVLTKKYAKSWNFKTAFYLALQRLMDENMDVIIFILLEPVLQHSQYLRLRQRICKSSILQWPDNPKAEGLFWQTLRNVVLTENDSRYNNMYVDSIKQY
# human TLR7 = target: T2, human TLR7 (Homo sapiens, UniProt Q9NYK1); assay: HEK293-Blue-hTLR-7 cells assay; assay type: cell-based; conditions: HEK293-Blue-hTLR7 cells, R848 stimulation, 20 hrs, SEAP reporter; read-out: HEK/hTLR7 IC50
# T2 construct: host or cells: HEK293 (HEK-Blue hTLR7)
# T2 sequence (Q9NYK1 27-1049): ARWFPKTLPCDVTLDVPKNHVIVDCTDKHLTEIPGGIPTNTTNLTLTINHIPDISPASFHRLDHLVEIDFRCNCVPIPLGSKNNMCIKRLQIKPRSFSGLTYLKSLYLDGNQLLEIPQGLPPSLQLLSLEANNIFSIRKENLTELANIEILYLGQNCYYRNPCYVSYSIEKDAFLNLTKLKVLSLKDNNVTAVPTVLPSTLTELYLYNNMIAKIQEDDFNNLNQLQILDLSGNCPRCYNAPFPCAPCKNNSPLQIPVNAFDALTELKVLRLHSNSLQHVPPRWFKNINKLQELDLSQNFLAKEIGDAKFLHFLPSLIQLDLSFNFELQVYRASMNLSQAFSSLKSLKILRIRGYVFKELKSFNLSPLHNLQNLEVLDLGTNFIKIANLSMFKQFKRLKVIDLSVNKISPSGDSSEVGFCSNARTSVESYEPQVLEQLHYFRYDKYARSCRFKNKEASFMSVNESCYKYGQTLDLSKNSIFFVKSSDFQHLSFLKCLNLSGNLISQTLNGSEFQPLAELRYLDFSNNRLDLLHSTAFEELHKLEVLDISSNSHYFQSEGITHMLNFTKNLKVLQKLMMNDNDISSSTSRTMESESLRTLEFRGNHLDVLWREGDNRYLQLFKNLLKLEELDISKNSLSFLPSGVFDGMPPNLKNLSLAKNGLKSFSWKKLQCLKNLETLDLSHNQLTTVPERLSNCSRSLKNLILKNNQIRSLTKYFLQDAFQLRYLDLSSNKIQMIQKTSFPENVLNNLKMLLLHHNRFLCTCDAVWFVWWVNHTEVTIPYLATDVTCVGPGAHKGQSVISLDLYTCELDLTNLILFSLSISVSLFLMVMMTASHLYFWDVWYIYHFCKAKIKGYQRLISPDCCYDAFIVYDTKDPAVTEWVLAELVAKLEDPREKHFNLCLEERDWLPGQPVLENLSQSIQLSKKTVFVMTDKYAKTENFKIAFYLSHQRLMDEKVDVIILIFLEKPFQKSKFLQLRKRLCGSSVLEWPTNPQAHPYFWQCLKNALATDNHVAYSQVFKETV
# Method: The following tests were carried out in order to determine the activity of the compounds of formula (I) and (Ia) in HEK293-Blue-hTLR-7/8/9 cells assay.
# HEK293-Blue-hTLR-7 cells assay:
# A stable HEK293-Blue-hTLR-7 cell line was purchased from InvivoGen (Cat. #: hkb-htlr7, San Diego, Calif., USA). These cells were originally designed for studying the stimulation of human TLR7 by monitoring the activation of NF-κB. A SEAP (secreted embryonic alkaline phosphatase) reporter gene was placed under the control of the […] minimal promoter fused to five NF-κB and AP-1-binding sites. The SEAP was induced by activating NF-κB and AP-1 via stimulating HEK-Blue hTLR7 cells with TLR7 ligands. Therefore, the reporter expression was declined by TLR7 antagonist under the stimulation of a ligand, such as R848 (Resiquimod), for incubation of 20 hrs. The cell culture supernatant SEAP reporter activity was determined using QUANTI-Blue™ kit (Cat. #: rep-qb1, Invivogen, San Diego, Calif., USA) at a wavelength of 640 nm, a detection medium that turns purple or blue in the presence of alkaline phosphatase.
# Then 20 μL of the supernatant from each well was incubated with […] Quanti-blue substrate solution at 37° C. for 2 hrs and the absorbance was read at 620-655 nm using a spectrophotometer. The signaling pathway that TLR7 activation leads to downstream NF-κB activation has been widely accepted, and therefore similar reporter assay was modified for evaluating TLR7 antagonist.
SMILES,pIC50 (human TLR8),pIC50 (human TLR7)
"C[C@@H]1CN(c2ccc(C#N)c3ncccc23)C[C@@H]2CN(Cc3ccc4c(c3)CNCC4)CCN21 [Example 5, 5-[(4R,9aS)-4-methyl-8-(1,2,3,4-tetrahydroisoquinolin-7-ylmethyl)-3,4,6,7,9,9a-hexahydro-1H-pyrazino[1,2-a]pyrazin-2-yl]quinoline-8-carbonitrile]",7.92,7.77
"C[C@@H]1CN(c2ccc(C#N)c3ncccc23)C[C@@H]2CN(Cc3cnc4c(c3)CNCC4)CCN21 [Example 6, 5-[(4R,9aS)-4-methyl-8-(5,6,7,8-tetrahydro-1,6-naphthyridin-3-ylmethyl)-3,4,6,7,9,9a-hexahydro-1H-pyrazino[1,2-a]pyrazin-2-yl]quinoline-8-carbonitrile]",7.85,7.85
"C[C@@H]1CN(c2ccc(C#N)c3ncccc23)C[C@@H]2CN(CCc3ccc(N4CCNCC4)cc3)CCN21 [Example 7, 5-[(4R,9aS)-4-methyl-8-[2-(4-piperazin-1-ylphenyl)ethyl]-3,4,6,7,9,9a-hexahydro-1H-pyrazino[1,2-a]pyrazin-2-yl]quinoline-8-carbonitrile]",7.52,8.30
"C[C@@H]1CN(c2ccc(C#N)c3ncccc23)C[C@@H]2CN(Cc3ccc(N4CCNCC4)nc3)CCN21 [Example 8, 5-[(4R,9aS)-4-methyl-8-[(6-piperazin-1-yl-3-pyridyl)methyl]-3,4,6,7,9,9a-hexahydro-1H-pyrazino[1,2-a]pyrazin-2-yl]quinoline-8-carbonitrile]",7.28,7.66
"C[C@@H]1CN(c2ccc(C#N)c3ncccc23)C[C@@H]2CN(c3cccc4c3CNC4)CCN21 [Example 9, 5-[(4R,9aS)-8-isoindolin-4-yl-4-methyl-3,4,6,7,9,9a-hexahydro-1H-pyrazino[1,2-a]pyrazin-2-yl]quinoline-8-carbonitrile]",9.00,8.52
"C[C@@H]1CN(c2ccc(C#N)c3ncccc23)C[C@@H]2CN(Cc3ccc4c(c3)CCNC4)CCN21 [Example 10, 5-[(4R,9aS)-4-methyl-8-(1,2,3,4-tetrahydroisoquinolin-6-ylmethyl)-3,4,6,7,9,9a-hexahydro-1H-pyrazino[1,2-a]pyrazin-2-yl]quinoline-8-carbonitrile]",7.92,7.59
"C[C@@H]1CN(c2ccc(C#N)c3ncccc23)C[C@@H]2CN(CCc3ccc(N4CCNCC4)nc3)CCN21 [Example 11, 5-[(4R,9aS)-4-methyl-8-[2-(6-piperazin-1-yl-3-pyridyl)ethyl]-3,4,6,7,9,9a-hexahydro-1H-pyrazino[1,2-a]pyrazin-2-yl]quinoline-8-carbonitrile]",7.68,8.15
"CO[C@@H]1CN(c2ccc(CCN3CCN4[C@@H](C3)CN(c3ccc(C#N)c5ncccc35)C[C@H]4C)cn2)C[C@H]1N [Example 12, 5-[(4R,9aS)-8-[2-[6-[(3R,4R)-3-amino-4-methoxy-pyrrolidin-1-yl]-3-pyridyl]ethyl]-4-methyl-3,4,6,7,9,9a-hexahydro-1H-pyrazino[1,2-a]pyrazin-2-yl]quinoline-8-carbonitrile]",7.85,7.92
"CO[C@@H]1CN(c2ccc(CCN3CCN4[C@@H](C3)CN(c3ccc(C#N)c5ncccc35)C[C@H]4C)nc2)C[C@H]1N [Example 13, 5-[(4R,9aS)-8-[2-[5-[(3R,4R)-3-amino-4-methoxy-pyrrolidin-1-yl]-2-pyridyl]ethyl]-4-methyl-3,4,6,7,9,9a-hexahydro-1H-pyrazino[1,2-a]pyrazin-2-yl]quinoline-8-carbonitrile]",8.05,7.59
"C[C@@H]1CN(c2ccc(C#N)c3ncccc23)C[C@@H]2CN(Cc3ccc(N4CCCNCC4)nc3)CCN21 [Example 15, 5-[(4R,9aS)-8-[[6-(1,4-diazepan-1-yl)-3-pyridyl]methyl]-4-methyl-3,4,6,7,9,9a-hexahydro-JH-pyrazino[1,2-a]pyrazin-2-yl]quinoline-8-carbonitrile]",7.55,7.31
"C[C@@H]1CN(c2ccc(C#N)c3ncccc23)C[C@@H]2CN(c3nccc4c3CCNC4)CCN21 [Example 16, 5-[(4R,9aR)-4-methyl-8-(5,6,7,8-tetrahydro-2,6-naphthyridin-1-yl)-3,4,6,7,9,9a-hexahydro-1H-pyrazino[1,2-a]pyrazin-2-yl]quinoline-8-carbonitrile]",8.05,8.22
"C[C@@H]1CN(c2ccc(C#N)c3ncccc23)C[C@@H]2CN(CCc3ccc(N4C[C@@H](N)[C@@H](F)C4)cn3)CCN21 [Example 19, 5-[(4R,9aS)-8-[2-[5-[(3R,4S)-3-amino-4-fluoro-pyrrolidin-1-yl]-2-pyridyl]ethyl]-4-methyl-3,4,6,7,9,9a-hexahydro-1H-pyrazino[1,2-a]pyrazin-2-yl]quinoline-8-carbonitrile]",7.51,8.00
"C[C@@H]1CN(c2ccc(C#N)c3ncccc23)C[C@@H]2CN(CCc3ccc(N4CCN[C@@H](C)C4)cn3)CCN21 [Example 20, 5-[(4R,9aS)-4-methyl-8-[2-[5-[(3S)-3-methylpiperazin-1-yl]-2-pyridyl]ethyl]-3,4,6,7,9,9a-hexahydro-1H-pyrazino[1,2-a]pyrazin-2-yl]quinoline-8-carbonitrile]",7.29,7.85
"C[C@@H]1CN(c2ccc(C#N)c3ncccc23)C[C@@H]2CN(CCc3cccc(N4CCN[C@@H](C)C4)n3)CCN21 [Example 21, 5-[(4R,9aS)-4-methyl-8-[2-[6-[(3S)-3-methylpiperazin-1-yl]-2-pyridyl]ethyl]-3,4,6,7,9,9a-hexahydro-1H-pyrazino[1,2-a]pyrazin-2-yl]quinoline-8-carbonitrile]",7.28,7.72
